For series [1], the system named is Myzus persicae (Green peach aphid). As to the kind of experiment: Efficacy of chlorpyrifos-ethyl with boronic acids on aphids on broad bean leaves. Type of series: in vivo. Conditions: for Percentage of efficacy: boronic acid where present 0.2 mg/ml. On the procedure: Experimentations was carried out in BIOtransfer, France under controlled conditions.
Bean leaves were treated with chlorpyrifos 480 EC (480 g a.i./1) at 4 application rates (360, 180, 90, 45 g a.i./ha), used alone or in combination with 3 boronic acid (BA) derivates (3.10, 5 and 3.7) each at 0.2 mg/ml. The treatment was performed with an agricultural nozzle (300 L per hectare) […]. A non-treated control condition were also evaluated in parallel. Statistical analysis of the data was then performed. When the leaves were totally dry, 3 leaves were sampled and infested with 3 wingless adults of M. persicae per leaf fragment.
• T+1 (DAT 1)—One day later the number of adults remaining on the leaves was counted. • T+3 (DAT 3)—3 days after treatment the aphid population was estimated; • T+7 (DAT 7)—7 days after treatment the development of aphid population was estimated.
3 bean leaves fragments per microbox*4 microbox per condition (1 condition is 1 formulation at 1 dose)*9 adult aphids per microbox*4 insecticides (3 chlorpyrifos derivates+clorpyrifos alone)*4 rates+2 controls (1 reference insecticide formulation at one dose and non-treated)*3 assessments timings (DAT+1, DAT+3 and DAT+7).

Series [2] in a line: Observation of the spray mixtures (flocculation). Type of series: physicochemical. The note with it: alone and in mixture with CPE in all doses.

The source of these data is patent US20190327974A1, “SYNERGISTS FOR IMPROVED PESTICIDES” (priority 2017, published 2019).

Each structure is given as a SMILES string.

With `CCOP(=S)(OCC)Oc1nc(Cl)c(Cl)cc1Cl` [CPE, Chlorpyrifos-ethyl], the Percentage of efficacy came to 38% in series [1] (CPE 0.7, 1 DAT); 20% in series [1] (CPE 0.7, 3 DAT); 25% in series [1] (CPE 0.7, 7 DAT); 41% in series [1] (CPE 1.4, 1 DAT); 27% in series [1] (CPE 1.4, 3 DAT); 25% in series [1] (CPE 1.4, 7 DAT). Further, the Percentage of efficacy in series [1] (CPE 2.8, 1 DAT) stood at 32%; in series [1] (CPE 2.8, 3 DAT) it was 26%; in series [1] (CPE 2.8, 7 DAT) it was 23%; in series [1] (CPE 5.6, 1 DAT) it was 36%; in series [1] (CPE 5.6, 3 DAT), 48%; in series [1] (CPE 5.6, 7 DAT) it was 67%. In addition, the “Calibration results (efficacy)” value in series [1] (CPE 1.4, 1 DAT) came out at 33%; in series [1] (CPE 1.4, 3 DAT) it was 51%; in series [1] (CPE 1.4, 7 DAT), 51%; in series [1] (CPE 2.8, 1 DAT), 31%; in series [1] (CPE 2.8, 3 DAT), 79%; in series [1] (CPE 2.8, 7 DAT) it was 99%. Besides, the “Calibration results (efficacy)” value turned out to be 67% in series [1] (CPE 5.6, 1 DAT); 98% in series [1] (CPE 5.6, 3 DAT); 100% in series [1] (CPE 5.6, 7 DAT).

For `OB(O)c1ccc(OCc2ccccc2F)c(Cl)c1` [Compound 5, 3-Chloro-4(2′-fluorobenzyloxy) phenylboronic acid], the flocculation entry in series [2] is “Flocculation is observed”.
